In US7423061B2, “Substitute thiophenes and uses thereof” (AstraZeneca AB, priority 2003, dated 2008) one finds IC50 data, which are given here for one compound.

The target of the assay is T1, CHK1 kinase (Homo sapiens, UniProt O14757).
T1 construct: The kinase domain is expressed in baculovirus and purified by the GST tag; GST; made in house
T1 sequence (O14757 9-265 limits assumed): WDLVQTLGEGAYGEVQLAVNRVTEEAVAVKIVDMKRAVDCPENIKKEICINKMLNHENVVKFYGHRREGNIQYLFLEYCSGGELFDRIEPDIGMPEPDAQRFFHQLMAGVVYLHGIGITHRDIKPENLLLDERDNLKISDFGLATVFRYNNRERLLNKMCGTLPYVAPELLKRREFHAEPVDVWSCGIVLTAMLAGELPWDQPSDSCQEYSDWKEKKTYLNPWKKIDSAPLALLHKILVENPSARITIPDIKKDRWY
The assay can be described thus: Checkpoint Kinase 1 Assay (Scintillation Proximity Assay). Conditions: assay not given; IC50s are determined in the Checkpoint Kinase 1 assay. It is filed as biochemical. How it is done: Checkpoint Kinase 1 Assay: This in vitro assay measures the inhibition of CHK1 kinase by compounds. The kinase domain is expressed in baculovirus and purified by the GST tag. Purified protein and biotinylated peptide substrate (Cdc25C) is then used in a 384 well automated Scintillation Proximity Assay (SPA). Specifically, peptide, enzyme and reaction buffer are mixed and aliquoted into a 384 well plate containing dilution series of compounds and controls. Cold and hot ATP are then added to initiate the reaction. After 2 hours, a SPA bead slurry, […] and EDTA are added to stop the reaction and capture the biotinylated peptide. Plates are then counted on a Topcount. Data is analyzed and IC50s determined for individual compounds.
(In general: SPA uses beads or plates that emit light when radiolabelled molecules are held near them.)

Structures can show the parent of a compound that is named as a salt.

As usually defined, the IC50 is the concentration that gives 50% inhibition. Read a low IC50 as greater potency.

Take `CCN(CC)CCOc1ccc(-c2cc(C(=O)NC3CCCNC3)c(NC(N)=O)s2)cc1` (stereo not shown) [Example 2, 2-[(aminocarbonyl)amino]-5-{4-[2-(diethylamino)ethoxy]phenyl}-N-piperidin-3-ylthiophene-3-carboxamide trifluoroacetate]: the IC50 turned out to be 10 nM.
